Results: ChEMBL document CHEMBL4350953, “Inhibitor of Apoptosis Protein (IAP) Antagonists in Anticancer Agent Discovery: Current Status and Perspectives” (J Med Chem, 2019)
Values belong to the molecule of their own block, whether it stands above or below them.

Tests used:
[1] = biological target: T1, E3 ubiquitin-protein ligase XIAP (Homo sapiens, UniProt P98170); assay: Binding affinity to XIAP-BIR3 domain (241 to 356 residues) (unknown origin) by fluorescence polarization-based competition assay
T1 sequence (P98170 whole entry, the tested form may be a part): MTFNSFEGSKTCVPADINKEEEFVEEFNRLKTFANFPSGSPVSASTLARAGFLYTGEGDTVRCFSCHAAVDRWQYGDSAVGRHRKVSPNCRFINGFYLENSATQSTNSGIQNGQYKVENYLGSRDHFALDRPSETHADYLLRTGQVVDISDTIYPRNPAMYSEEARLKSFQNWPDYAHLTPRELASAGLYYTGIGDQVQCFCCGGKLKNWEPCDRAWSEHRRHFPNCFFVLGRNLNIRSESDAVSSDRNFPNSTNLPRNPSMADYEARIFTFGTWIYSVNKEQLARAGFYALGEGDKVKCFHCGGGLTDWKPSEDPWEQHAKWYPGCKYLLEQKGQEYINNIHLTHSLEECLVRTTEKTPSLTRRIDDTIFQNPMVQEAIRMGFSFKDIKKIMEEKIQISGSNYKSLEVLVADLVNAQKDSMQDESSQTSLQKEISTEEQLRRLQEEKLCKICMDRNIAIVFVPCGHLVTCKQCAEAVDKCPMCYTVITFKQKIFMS

Caspase-9 = biological target: T2, Caspase-9 (Homo sapiens, UniProt P55211); assay: Inhibition of N-terminal CARD domain of caspase 9 (unknown origin)
T2 sequence (P55211 whole entry): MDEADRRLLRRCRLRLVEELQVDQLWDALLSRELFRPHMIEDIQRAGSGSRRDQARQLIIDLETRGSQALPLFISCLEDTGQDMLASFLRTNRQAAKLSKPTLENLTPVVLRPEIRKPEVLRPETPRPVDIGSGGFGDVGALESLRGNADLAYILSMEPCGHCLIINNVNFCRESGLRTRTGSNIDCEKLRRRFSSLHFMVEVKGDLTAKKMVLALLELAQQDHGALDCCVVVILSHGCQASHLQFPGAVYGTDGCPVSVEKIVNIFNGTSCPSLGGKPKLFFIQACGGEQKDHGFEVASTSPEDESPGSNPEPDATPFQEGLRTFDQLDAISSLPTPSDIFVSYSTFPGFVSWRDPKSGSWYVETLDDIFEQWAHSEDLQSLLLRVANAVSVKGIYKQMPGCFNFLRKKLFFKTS

MDA-MB-231 [2] = assay: Cytotoxicity against human MDA-MB-231 cells assessed as reduction in cell viability
[3] = biological target: T3, Baculoviral IAP repeat-containing protein 2 (Homo sapiens, UniProt Q13490); assay: Induction of cIAP1 (unknown origin) degradation
T3 sequence (Q13490 whole entry, the tested form may be a part): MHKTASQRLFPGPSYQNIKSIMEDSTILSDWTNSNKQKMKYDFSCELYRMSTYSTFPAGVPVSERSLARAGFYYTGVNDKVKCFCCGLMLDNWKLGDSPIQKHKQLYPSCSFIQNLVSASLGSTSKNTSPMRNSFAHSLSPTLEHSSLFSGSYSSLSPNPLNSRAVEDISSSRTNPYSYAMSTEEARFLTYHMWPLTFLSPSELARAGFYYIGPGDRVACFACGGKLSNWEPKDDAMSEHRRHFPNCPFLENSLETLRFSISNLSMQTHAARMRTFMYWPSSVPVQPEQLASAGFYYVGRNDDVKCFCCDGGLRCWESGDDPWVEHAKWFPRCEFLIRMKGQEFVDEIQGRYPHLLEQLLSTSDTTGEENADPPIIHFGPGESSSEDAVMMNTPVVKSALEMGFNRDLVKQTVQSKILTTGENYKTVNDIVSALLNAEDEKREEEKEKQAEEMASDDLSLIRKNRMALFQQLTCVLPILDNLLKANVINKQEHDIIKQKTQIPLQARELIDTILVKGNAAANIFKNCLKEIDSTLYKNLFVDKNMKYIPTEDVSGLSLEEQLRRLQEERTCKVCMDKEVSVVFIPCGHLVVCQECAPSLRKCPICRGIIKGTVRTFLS

[4] = biological target: T3, Baculoviral IAP repeat-containing protein 2; assay: Binding affinity to cIAP1-BIR3 domain (unknown origin)
MDA-MB-231 [5] = assay: Growth inhibition of human MDA-MB-231 cells; format: functional
HL-60 = assay: Cytotoxicity against human HL60 cells assessed as reduction in cell viability; format: functional, cell-based
[6] = biological target: T1, E3 ubiquitin-protein ligase XIAP; assay: Binding affinity to XIAP-BIR2/BIR3 domain (unknown origin)
[7] = biological target: Baculoviral IAP repeat-containing protein 3 (Homo sapiens, UniProt Q13489); assay: Binding affinity to cIAP2-BIR3 domain (unknown origin)
Chain of Baculoviral IAP repeat-containing protein 3 (Q13489 whole entry, the tested form may be a part): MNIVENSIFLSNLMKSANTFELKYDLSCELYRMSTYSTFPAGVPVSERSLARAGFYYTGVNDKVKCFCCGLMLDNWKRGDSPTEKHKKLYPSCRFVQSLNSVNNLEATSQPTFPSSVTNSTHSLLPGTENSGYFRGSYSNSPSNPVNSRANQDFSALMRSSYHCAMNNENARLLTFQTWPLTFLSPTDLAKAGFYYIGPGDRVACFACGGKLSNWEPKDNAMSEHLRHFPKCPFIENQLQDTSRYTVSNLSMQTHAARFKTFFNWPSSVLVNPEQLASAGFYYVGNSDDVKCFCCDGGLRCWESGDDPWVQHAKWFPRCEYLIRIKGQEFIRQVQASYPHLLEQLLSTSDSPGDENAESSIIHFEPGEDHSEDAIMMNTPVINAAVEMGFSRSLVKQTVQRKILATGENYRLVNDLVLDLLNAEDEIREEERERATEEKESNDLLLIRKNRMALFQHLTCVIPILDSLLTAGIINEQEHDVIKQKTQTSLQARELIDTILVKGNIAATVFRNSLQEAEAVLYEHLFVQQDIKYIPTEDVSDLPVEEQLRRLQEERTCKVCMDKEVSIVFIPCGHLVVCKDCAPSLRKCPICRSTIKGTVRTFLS

[8] = biological target: T1, E3 ubiquitin-protein ligase XIAP; assay: Binding affinity to XIAP-BIR2 domain (unknown origin) by fluorescence polarization-based competition assay

Compound: CN[C@@H](C)C(=O)N[C@H](C(=O)N1CCC[C@H]1C(=O)N[C@H]1c2ccccc2C[C@H]1OCC#CC#CCO[C@@H]1Cc2ccccc2[C@@H]1NC(=O)[C@@H]1CCCN1C(=O)[C@@H](NC(=O)[C@H](C)NC)C(C)(C)C)C(C)(C)C
EC50 [3]: 0.1 nM
IC50 [4]: 15 nM
GI50 (MDA-MB-231 [5]): < 0.06 nM

Compound: CN[C@@H](C)C(=O)N[C@@H](CNC(=O)c1ccc(S(=O)(=O)F)cc1)C(=O)N1CCC[C@@H]1c1cncc(Cc2ccc(F)cc2)n1
IC50 [4]: > 200 nM

Compound: CC[C@H](NC)C(=O)N[C@H](C(=O)N1C[C@H]2Cc3cc(Cl)ccc3N2C[C@H]1C(=O)N[C@H]1CCOc2ccccc21)C1CCCCC1
GI50 (MDA-MB-231 [5]): 15 nM

Compound: CN[C@@H](C)C(=O)NC1CCCC[C@H]2CC[C@@H](C(=O)N[C@@H](c3ccccc3)c3cn(CCCCc4ccc(CCCCn5cc([C@@H](NC(=O)[C@@H]6CC[C@@H]7CCCC[C@H](NC(=O)[C@H](C)NC)C(=O)N76)c6ccccc6)nn5)cc4)nn3)N2C1=O (stereo not given in full)
IC50 (HL-60): 1 nM

Compound: CN[C@@H](C)C(=O)N[C@H]1CCCC[C@H]2CC[C@@H](C(=O)N[C@@H](c3ccccc3)c3cn(Cc4ccccc4)nn3)N2C1=O
IC50 [6]: 376 nM
IC50 (HL-60): 2000 nM

Compound: CN[C@@H](C)C(=O)N[C@H]1CCCC[C@H]2CC[C@@H](C(=O)NC(c3ccccc3)c3ccccc3)N2C1=O
IC50 (HL-60): 1400 nM

Compound: CC[C@H](NC(=O)[C@H](C)NC)C(=O)N1C[C@@H](O)C[C@H]1Cc1c(-c2[nH]c3cc(F)ccc3c2C[C@@H]2C[C@H](O)CN2C(=O)[C@H](CC)NC(=O)[C@H](C)NC)[nH]c2cc(F)ccc12 [BIRINAPANT]
Kd [7]: 36 nM

More lines, main results first:

Kd [1]: 29 nM
Compound: CN[C@@H](C)C(=O)N[C@H](C(=O)N1CCC[C@H]1C(=O)N[C@H]1CCc2ccccc21)C(C)(C)C

EC50 (Caspase-9): 290 nM
Compound: CN[C@@H](C)C(=O)N[C@H](C(=O)N1CCC[C@H]1C(=O)N[C@H]1CCCc2ccccc21)C(C)(C)C
IC50 (MDA-MB-231 [2]): 68 nM

EC50 (Caspase-9): 310 nM
Compound: CN[C@@H](C)C(=O)N[C@H](C(=O)N1CCC[C@H]1C(=O)N[C@H]1CCCc2ccccc21)C1CCCCC1
IC50 (MDA-MB-231 [2]): 13 nM

EC50 (Caspase-9): 240 nM
Compound: CN[C@@H](C)C(=O)N[C@H](C(=O)N1CC[C@@H](Oc2ccccc2)[C@H]1C(=O)N[C@H]1CCCc2ccccc21)C(C)(C)C

Kd [4]: 1.3 nM
GI50 (MDA-MB-231 [5]): 1.8 nM
Compound: CCO[C@@H]1C[C@@H]2CN(C(=O)[C@@H](NC(=O)[C@H](C)NC)C3CCC(F)(F)CC3)[C@H](C(=O)N[C@H]3CCOc4ccccc43)CN2C1

Kd [1]: 28 nM
Kd [8]: 112 nM
Compound: CN[C@@H](C)C(=O)N[C@H](C(=O)N1CCC[C@H]1C(=O)Nc1snnc1-c1ccccc1)C1CCCCC1 [GDC-0152]
